Test results taken from patent US20260140098A1, “METHOD FOR TREATING PLASMA SAMPLE CONTAINING (7aS,2'S)-2-OXO-CLOPIDOGREL AND METHOD FOR DETERMINING THE SAME” (CHENGDU SHIBEIKANG BIOMEDICAL TECHNOLOGY CO., LTD., priority 2021, published 2026).

Assay: Stability of (7aS,2′S)-2-oxo-clopidogrel in plasma, screening of TCEP dosage (Example 4)
Assay type: in vitro ADME
Procedure: S2. Plasma sample pre-treatment: taking 100 μl of the plasma, adding 5 μl of an internal standard working solution and 300 μl of acetonitrile respectively; after vortex mixing, centrifuging at 2-8° C. and 10,000 r/min for 10 min, and collecting the supernatant for later use.
S3. LC-MS/MS analysis: injecting 10 μl of the supernatant prepared from step S2 for determination, where the liquid chromatography conditions are: • the chromatographic column is Kinetex® 1.7 μm C18 100 A 100×2.1 mm; the column temperature is 40° C.; the mobile phase is acetonitrile-0.2% aqueous formic acid solution with a flow rate of 0.2 ml/min; and a gradient elution is carried out as specified in the table below:
ESI ion source, positive ion detection in multiple reaction monitoring mode (MRM); the quantitatively analyzed ions (7aS,2′S)-2-oxo-clopidogrel: m/z 338.100→155.000, IS: m/z 341.100→158.000, a capillary voltage of 4.0 KV, a cone voltage of 25 V, a desolvation gas temperature of 400° C. and a source temperature of 150° C. The optimal collision energy is 20 eV.
Blank plasma was taken and TCEP was added to prepare plasma containing TCEP at different concentrations (10, 50, 100 mg/ml). Subsequently, standard series solution of (7aS,2′S)-2-oxo-clopidogrel was added separately to prepare quality control samples with two concentrations of (7aS,2′S)-2-oxo-clopidogrel (0.1 and 12.0 ng/ml), 3 samples for each concentration. They were placed at room temperature and on ice, respectively, and the plasma samples at different placing time points were taken to examine the stability by pre-treating the plasma samples according to the method of S2 of Example 1, followed by LC/MS/MS determination according to the method of S3.

COC(=O)[C@H](c1ccccc1Cl)N1CC[C@@H]2SC(=O)C=C2C1 [(7aS,2′S)-2-oxo-clopidogrel, methyl(S)-2-(2-chlorophenyl)-2-((S)-2-oxo-2,6,7,7a-tetrahydrothieno[3,2-c]pyridin-5 (4H)-yl)acetate]
Measured concentration (No TCEP, theoretical 0.1 ng/mL, on ice, 0 min): 0.0965 ng/mL | Measured concentration (No TCEP, theoretical 0.1 ng/mL, on ice, 30 min): 0.0842 ng/mL | Measured concentration (No TCEP, theoretical 0.1 ng/mL, on ice, 60 min): 0.0763 ng/mL | Measured concentration (No TCEP, theoretical 0.1 ng/mL, on ice, 120 min): 0.0622 ng/mL | Measured concentration (No TCEP, theoretical 0.1 ng/mL, room temperature, 0 min): 0.0965 ng/mL | Measured concentration (No TCEP, theoretical 0.1 ng/mL, room temperature, 30 min): 0.0782 ng/mL | Measured concentration (No TCEP, theoretical 0.1 ng/mL, room temperature, 60 min): 0.0633 ng/mL | Measured concentration (No TCEP, theoretical 0.1 ng/mL, room temperature, 120 min): 0.0529 ng/mL | Measured concentration (No TCEP, theoretical 12.0 ng/mL, on ice, 0 min): 12.3 ng/mL | Measured concentration (No TCEP, theoretical 12.0 ng/mL, on ice, 30 min): 10.3 ng/mL | Measured concentration (No TCEP, theoretical 12.0 ng/mL, on ice, 60 min): 9.65 ng/mL | Measured concentration (No TCEP, theoretical 12.0 ng/mL, on ice, 120 min): 7.23 ng/mL | Measured concentration (No TCEP, theoretical 12.0 ng/mL, room temperature, 0 min): 12.3 ng/mL | Measured concentration (No TCEP, theoretical 12.0 ng/mL, room temperature, 30 min): 9.45 ng/mL | Measured concentration (No TCEP, theoretical 12.0 ng/mL, room temperature, 60 min): 8.38 ng/mL | Measured concentration (No TCEP, theoretical 12.0 ng/mL, room temperature, 120 min): 6.57 ng/mL | Measured concentration (TCEP 10 mg/ml, theoretical 0.1 ng/mL, on ice, 0 min): 0.0965 ng/mL | Measured concentration (TCEP 10 mg/ml, theoretical 0.1 ng/mL, on ice, 30 min): 0.0942 ng/mL | Measured concentration (TCEP 10 mg/ml, theoretical 0.1 ng/mL, on ice, 60 min): 0.0863 ng/mL | Measured concentration (TCEP 10 mg/ml, theoretical 0.1 ng/mL, on ice, 120 min): 0.0782 ng/mL | Measured concentration (TCEP 10 mg/ml, theoretical 0.1 ng/mL, room temperature, 0 min): 0.0965 ng/mL | Measured concentration (TCEP 10 mg/ml, theoretical 0.1 ng/mL, room temperature, 30 min): 0.0952 ng/mL | Measured concentration (TCEP 10 mg/ml, theoretical 0.1 ng/mL, room temperature, 60 min): 0.0833 ng/mL | Measured concentration (TCEP 10 mg/ml, theoretical 0.1 ng/mL, room temperature, 120 min): 0.0729 ng/mL | Measured concentration (TCEP 10 mg/ml, theoretical 12.0 ng/mL, on ice, 0 min): 12.3 ng/mL | Measured concentration (TCEP 10 mg/ml, theoretical 12.0 ng/mL, on ice, 30 min): 11.9 ng/mL | Measured concentration (TCEP 10 mg/ml, theoretical 12.0 ng/mL, on ice, 60 min): 10.65 ng/mL | Measured concentration (TCEP 10 mg/ml, theoretical 12.0 ng/mL, on ice, 120 min): 9.92 ng/mL | Measured concentration (TCEP 10 mg/ml, theoretical 12.0 ng/mL, room temperature, 0 min): 12.3 ng/mL | Measured concentration (TCEP 10 mg/ml, theoretical 12.0 ng/mL, room temperature, 30 min): 11.7 ng/mL | Measured concentration (TCEP 10 mg/ml, theoretical 12.0 ng/mL, room temperature, 60 min): 10.4 ng/mL | Measured concentration (TCEP 10 mg/ml, theoretical 12.0 ng/mL, room temperature, 120 min): 9.45 ng/mL | Measured concentration (TCEP 50 mg/ml, theoretical 0.1 ng/mL, on ice, 0 min): 0.0965 ng/mL | Measured concentration (TCEP 50 mg/ml, theoretical 0.1 ng/mL, on ice, 30 min): 0.0956 ng/mL | Measured concentration (TCEP 50 mg/ml, theoretical 0.1 ng/mL, on ice, 60 min): 0.0932 ng/mL | Measured concentration (TCEP 50 mg/ml, theoretical 0.1 ng/mL, on ice, 120 min): 0.0911 ng/mL | Measured concentration (TCEP 50 mg/ml, theoretical 0.1 ng/mL, room temperature, 0 min): 0.0965 ng/mL | Measured concentration (TCEP 50 mg/ml, theoretical 0.1 ng/mL, room temperature, 30 min): 0.0935 ng/mL | Measured concentration (TCEP 50 mg/ml, theoretical 0.1 ng/mL, room temperature, 60 min): 0.0914 ng/mL | Measured concentration (TCEP 50 mg/ml, theoretical 0.1 ng/mL, room temperature, 120 min): 0.0895 ng/mL | Measured concentration (TCEP 50 mg/ml, theoretical 12.0 ng/mL, on ice, 0 min): 12.3 ng/mL | Measured concentration (TCEP 50 mg/ml, theoretical 12.0 ng/mL, on ice, 30 min): 12.2 ng/mL | Measured concentration (TCEP 50 mg/ml, theoretical 12.0 ng/mL, on ice, 60 min): 11.9 ng/mL | Measured concentration (TCEP 50 mg/ml, theoretical 12.0 ng/mL, on ice, 120 min): 11.4 ng/mL | Measured concentration (TCEP 50 mg/ml, theoretical 12.0 ng/mL, room temperature, 0 min): 12.3 ng/mL | Measured concentration (TCEP 50 mg/ml, theoretical 12.0 ng/mL, room temperature, 30 min): 12.1 ng/mL | Measured concentration (TCEP 50 mg/ml, theoretical 12.0 ng/mL, room temperature, 60 min): 11.9 ng/mL | Measured concentration (TCEP 50 mg/ml, theoretical 12.0 ng/mL, room temperature, 120 min): 10.6 ng/mL | Measured concentration (TCEP 100 mg/ml, theoretical 0.1 ng/mL, on ice, 0 min): 0.0965 ng/mL | Measured concentration (TCEP 100 mg/ml, theoretical 0.1 ng/mL, on ice, 30 min): 0.0958 ng/mL | Measured concentration (TCEP 100 mg/ml, theoretical 0.1 ng/mL, on ice, 60 min): 0.0942 ng/mL | Measured concentration (TCEP 100 mg/ml, theoretical 0.1 ng/mL, on ice, 120 min): 0.0951 ng/mL | Measured concentration (TCEP 100 mg/ml, theoretical 0.1 ng/mL, room temperature, 0 min): 0.0965 ng/mL | Measured concentration (TCEP 100 mg/ml, theoretical 0.1 ng/mL, room temperature, 30 min): 0.0955 ng/mL | Measured concentration (TCEP 100 mg/ml, theoretical 0.1 ng/mL, room temperature, 60 min): 0.0934 ng/mL | Measured concentration (TCEP 100 mg/ml, theoretical 0.1 ng/mL, room temperature, 120 min): 0.0915 ng/mL | Measured concentration (TCEP 100 mg/ml, theoretical 12.0 ng/mL, on ice, 0 min): 12.3 ng/mL | Measured concentration (TCEP 100 mg/ml, theoretical 12.0 ng/mL, on ice, 30 min): 12.4 ng/mL | Measured concentration (TCEP 100 mg/ml, theoretical 12.0 ng/mL, on ice, 60 min): 12.1 ng/mL | Measured concentration (TCEP 100 mg/ml, theoretical 12.0 ng/mL, on ice, 120 min): 11.8 ng/mL | Measured concentration (TCEP 100 mg/ml, theoretical 12.0 ng/mL, room temperature, 0 min): 12.3 ng/mL | Measured concentration (TCEP 100 mg/ml, theoretical 12.0 ng/mL, room temperature, 30 min): 12.2 ng/mL | Measured concentration (TCEP 100 mg/ml, theoretical 12.0 ng/mL, room temperature, 60 min): 11.9 ng/mL | Measured concentration (TCEP 100 mg/ml, theoretical 12.0 ng/mL, room temperature, 120 min): 11.6 ng/mL | Stability in plasma (in words) (TCEP added at a concentration of 50 mg/ml or more): good stability
